Experimental data published in article PMC3332081, “Cysteamine Suppresses Invasion, Metastasis and Prolongs Survival by Inhibiting Matrix Metalloproteinases in a Mouse Model of Human Pancreatic Cancer” (PLoS ONE, 2012).
One block for each compound: values may come before it.

Legend:
MMP-12 [1] = molecular target: T1, MMP-12 (Homo sapiens, UniProt P39900); test: fluorimetric MMP inhibitor profiling, MMP-12; type: biochemical; settings: 30 minutes preincubation, fluorogenic substrate
T1 construct: purchased Enzo Life Science, Farmingdale, NY
Procedure: (§1) After administration of fluorogenic substrate, a velocity of fluorescent increase was measured using excitation/emission = 320/405 nm.

[2] = set-up: method as in PMID 11060801; settings: cited from earlier work
[3] = cited from earlier work
HS766T [4] = test: cell viability assay (trypan blue count), HS766T; type: cell-based, human; settings: 24 and 48 hour treatment, viable cell count
Procedure: (§2) Cell viability of pancreatic cancer cell lines was measured by counting viable cell numbers. Briefly, 3×10^5 cells were seeded per well in a 6-well plate with 2.0 milliliter complete medium and incubated overnight for plating. The cells were treated with different concentrations of cysteamine for 24–48 hours. After incubation, cells were detached with trypsin, washed and stained with 0.4% trypan blue. Cell number was manually counted using a hemocytometer and presented as number of viable cells per milliliter.

MMPs = test: fluorimetric MMP inhibitor profiling, span over all MMPs; type: biochemical; settings: MMP-1, -2, -3, -7, -8, -9, -10, -12, -13, -14; read-out: IC50 against each MMP enzymatic activity (span over the MMPs)
Procedure: as §1

MIA-PaCa2 [5] = test: cell viability assay (trypan blue count), MIA-PaCa2; type: cell-based, human
Procedure: as §2

MMP-9 [6] = test: MMP-9 mRNA in primary tumors (qRT-PCR); type: in vivo, nude nu/nu mice; settings: tumors harvested at day 30
Procedure: (§3) Quantitative reverse transcription-PCR (qRT-PCR) was performed as described previously using QuantiTect SYBR Green PCR Kits (QIAGEN, Valencia, CA). Gene specific primers for human MMP-9, MMP-12, MMP-14 and β-actin were either purchased from QIAGEN or synthesized at the CBER core facility. Gene expression was normalized to β-actin before the fold change in gene expression was determined.
(§4) When mice were sacrificed at day 30, primary tumors were collected. For extraction of total protein, the tumor was soaked with lysis buffer and homogenized using TissueRuptor (QIAGEN); the supernatant was collected. Total RNA was extracted using FastRNA pro green kit (MP Biomedicals, Solon, OH) following the manufacturer's instructions. MMP activity, gelatin hydrolyzing MMP activity and the mRNA and protein levels of MMP-9 were determined as mentioned above.

HS766T [7] = test: orthotopic pancreatic cancer model, HS766T; type: in vivo, nude nu/nu mice
Procedure: (§5) Female nude nu/nu mice between ages 5 and 6 weeks were maintained in a barrier facility in HEPA-filtered rack. All animal studies were conducted under approved protocol #2000–06 by the CBER Institutional Animal Care and Use Committee in accordance with the principles and procedures outlined in the NIH Guideline for the Care and Use of Laboratory Animals. For orthotopic tumor cell injection, the pancreas was carefully exposed, and 2.0×10^6 of MIA-PaCa2 and HS766T cells were injected into the organ. The pancreas was then returned to the peritoneal cavity, and the abdominal wall and skin were closed with skin clips,[30]. From day 4 after tumor implantation, increasing doses of cysteamine (0, 25, 100, or 250 mg/kg/day) were subcutaneously injected twice a day until the end of the experiment. At day 30, mice were sacrificed and the number of metastatic nodules visible by naked eye and whose sizes were >5 mm in diameter counted. The total weight of primary tumor and metastatic nodules were also measured. Pictures were taken immediately after sacrificing the animals. Additionally, mouse survival time was monitored in an independent experiment. Mice were sacrificed when they had severe ascites or cachexia. Mice in both tumor models were weighed at day 10 and day 25 after Cysteamine treatment.

MMP-9 [8] = test: zymography of primary tumors; type: in vivo, nude nu/nu mice; settings: tumors harvested at day 30
Procedure: (§6) Gelatin gel zymography was performed on cell lysates from HS7666 and MIA-PaCa2 pancreatic cancer cell line with or without culture with different concentration of cysteamine essentially as described by D'Angelo et al. Briefly, 50 µg of total protein was electrophoresed on 10% SDS-PAGE containing 0.1% gelatin as substrate. After washing with 1% Triton X-100 in 50 mM Tris/HCl, pH 7.5 for 1 hr to remove SDS, the gels were incubated overnight at 37 °C in 50 mM Tris/HCl, pH 7.5, containing 150 mM NaCl, 10 mM CaCl2 and 0.1% Triton X-100, prior to staining with simply blue safe stain. The gels were washed with deionized water at room temperature. […] Relevant band intensities were quantified by scanning densitometric analysis and normalized to cell number.
as §4

MMP-9 [9] = test: MMP-9 protein in primary tumors (ELISA); type: in vivo, nude nu/nu mice; settings: tumors harvested at day 30
Procedure: (§7) The MMP-9 protein level was determined using Human total MMP-9 DuoSet kit (R&D systems, Emeryville, CA) following the manufacturer's instruction. Ten microgram of total protein was aliquoted in each well and the MMP-9 concentration was determined by the colorimetric method.
as §4

MIA-PaCa2 [10] = test: orthotopic pancreatic cancer model, MIA-PaCa2; type: in vivo, nude nu/nu mice
Procedure: as §5

[11] = tested on: pancreatic cancer cell lines; test: matrigel invasion assay; type: cell-based, human
Procedure: Cell invasion was assayed in BD BioCoat Matrigel invasion chambers (BD Biosciences; 24 wells, 8 µm pore size) as described previously. Briefly, cells were incubated with different concentrations of cysteamine (0–5 mM) for 24 hours. Non-invaded cells were removed from the upper surface of the membrane with a cotton swab, and cells on the lower surface of the membrane were fixed and stained with H&E. Three random fields per chamber were counted. Data were shown as mean ± S.D. of triplicate determinations.

[12] = safety in tumor-bearing mice (body weight, serum enzymes, histology); type: in vivo, nude nu/nu mice
Procedure: as §5
Mouse blood was collected from the tail vein. Serum levels of alanine aminotransferase (ALT), creatine kinase (CK), aldolase and creatinine (Cr) were measured using different kits obtained from Pointe Scientific, Inc. (Canton, MI) and Caldon Biotech, Inc. (Vista, Ca), following the manufacturer's instruction.

MMP-9 [13] = test: gelatin gel zymography of treated cells; type: cell-based, human; settings: cell lysates after 24 hours
Procedure: as §6

[14] = oral, every 6 hours at 60 to 90 mg/kg of body weight per day; cited from earlier work
[15] = tested on: pancreatic cancer cell lines; test: cell migration (wound healing) assay; type: cell-based, human
Procedure: Cell migration assay is a classical wound healing assay. For this assay, cells were cultured in 10 cm petri dishes until they were completely confluent. Cell monolayers were scraped with a sterile yellow micropipette tip and washed with PBS three times; the cells were then cultured in medium containing 0–5 mM of cysteamine for 24 hours. Five random fields were selected and pictures were taken using an inverted microscope. The average area (mm^2) of the gap between the cell layers was calculated using IPLab imaging software (BD Biosciences-Bioimaging, Rockville, MD).

MMP-14 = MMP-14 mRNA in treated cells (qRT-PCR); type: cell-based, human; settings: 24 hours, highest concentration
Procedure: as §3

[16] = tested on: MMPs activity in primary orthotopic tumors (HS766T and MIA-PaCa2); test: MMP activity in primary orthotopic tumors (fluorogenic substrate); type: in vivo, nude nu/nu mice; settings: 100 and 250 mg/Kg, day 30
Procedure: (§8) MMPs activity was measured by Mca-KPLGL-Dpa-AR-NH2 Fluorogenic Peptide Substrate (R&D systems, Emeryville, CA). Total cell protein from each pancreatic cancer cell line was collected using lysis buffer (containing 50 mM Tris-HCl, 10 mM CaCl2, 0.05% Brij35 and 0.25% Triton-X) without an MMP inhibitor. Substrate and 10 µg of total cell protein in the buffer were mixed in a black-wall 96-well plate. After 1 hour incubation, fluorescence units were determined using excitation/emission = 320/405 nm.
as §4

MMP-9 [17] = test: MMP-9 protein level in treated cells (ELISA); type: cell-based, human; settings: 5 mM (highest concentration), 24 hours, both cell lines
Procedure: as §7

[18] = tested on: total MMPs activity in pancreatic cancer cell lines; test: total MMPs activity in lysates of treated cells (fluorogenic substrate); type: cell-based, human; settings: two representative pancreatic cancer cell lines, 0–5 mM, 24 hours
Procedure: as §8

MMP-9 [19] = test: MMP-9 mRNA in treated cells (qRT-PCR); type: cell-based, human; settings: 5 mM (highest concentration), 24 hours, both cell lines
Procedure: as §3

MMP-12 [20] = test: MMP-12 mRNA in treated cells (qRT-PCR); type: cell-based, human; settings: 24 hours, highest concentration
Procedure: as §3

T1 sequence (P39900 106-470): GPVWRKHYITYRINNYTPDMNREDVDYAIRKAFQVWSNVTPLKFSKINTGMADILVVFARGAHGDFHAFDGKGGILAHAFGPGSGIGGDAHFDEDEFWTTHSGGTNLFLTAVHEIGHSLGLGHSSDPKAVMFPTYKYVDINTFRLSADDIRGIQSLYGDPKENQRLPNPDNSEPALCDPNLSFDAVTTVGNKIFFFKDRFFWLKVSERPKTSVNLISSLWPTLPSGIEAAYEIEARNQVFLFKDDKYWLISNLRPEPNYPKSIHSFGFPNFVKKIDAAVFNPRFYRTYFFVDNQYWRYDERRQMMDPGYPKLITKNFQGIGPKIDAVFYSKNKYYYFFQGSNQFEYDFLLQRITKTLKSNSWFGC

IC50 (MMP-12 [1]): 12 nM
Compound: CNC(=O)[C@H](Cc1ccccc1)NC(=O)[C@H](CC(C)C)[C@H](CSc1cccs1)C(=O)NO [Batimastat]
oral bioavailability [2]: poor oral bioavailability

Compound: NCCS [Cysteamine]
adverse effects in subjects [3]: only gastrointestinal symptoms
concentration showing cell toxicity (HS766T [4]): > 12.5 mM
IC50 (MMPs): 38 to 460 µM
concentration showing cell toxicity (MIA-PaCa2 [5]; MIA-PaCa2, 24 and 48 hour treatment, viable cell count): > 12.5 mM
concentrations that caused no toxicity to cells (abstract) (MIA-PaCa2 [5]; cells not named in the abstract, viability tested in MIA-PaCa2): < 25 mM
MMP-9 mRNA level in primary tumors (MMP-9 [6]): did not affect
HS766T metastasis number, average (HS766T [7]; 250mg/kg s.c., day 30, lesions ≥ 5 mm, average of 5 mice): 3.6
decrease of the number of metastases of HS766T tumor (HS766T [7]; 250 mg/kg/day s.c., day 30, versus control): ~90%
development of ascites (HS766T [7]; HS766T model, 100 and 250 mg/kg/day): no mice developed ascites
dose at which mouse survival time was significantly prolonged (HS766T [7]; HS766T model, Kaplan-Meier, s.c. twice a day from day 4): ≥ 100 mg/kg/day
size and weight of the primary tumors, control versus treated groups (HS766T [7]; HS766T model, day 30): did not show any difference
zymography for MMP-9, gelatinase activity in tumors (MMP-9 [8]): dose dependent decrease in gelatinase activity
MMP-9 protein level in primary tumors (MMP-9 [9]): did not affect
development of ascites (MIA-PaCa2 [10]; MIA-PaCa2 model, 100 and 250 mg/kg/day): no mice developed ascites
dose at which mouse survival time was significantly prolonged (MIA-PaCa2 [10]; MIA-PaCa2 model, Kaplan-Meier, s.c. twice a day from day 4): ≥ 100 mg/kg/day
size and weight of the primary tumors, control versus treated groups (MIA-PaCa2 [10]; MIA-PaCa2 model, day 30): did not show any difference
decrease of the total weight of metastatic nodules of MIA-PaCa2 tumor (MIA-PaCa2 [10]; highest dose (250 mg/kg/day) s.c., day 30, versus control): ~90%
lowest concentration that significantly inhibited cell invasion ([11]; all 10 pancreatic cancer cell lines, 24 hours): 0.05 mM
concentration that sufficiently inhibited cancer cell invasion in vitro ([11]; in vitro): 50 µM
organ toxicity by histological examination ([12]; liver, kidney, brain, heart, lung, day 30): no organ toxicity was detected
dose tolerated without visible, biochemical or histological evidence of toxicity ([12]; mice, s.c.): up to 250 mg/kg/day
serum alanine aminotransferase (ALT) ([12]; mouse, in vivo): no significant differences
serum aldolase ([12]; mouse, in vivo): no significant differences
serum creatine kinase (CK) ([12]; mouse, in vivo): no significant differences
serum creatinine (Cr) ([12]; mouse, in vivo): no significant differences
zymographic gelatin hydrolyzing activity, pro and active MMP-9 (MMP-9 [13]): decreased significantly in a dose dependent manner
cysteamine plasma level [14]: ~50 µM
concentration at which cell migration was significantly inhibited ([15]; all 10 cell lines, 24 hours): ≥ 0.05 mM
concentration that sufficiently inhibited cancer cell migration in vitro ([15]; in vitro): 50 µM
MMP-14 mRNA (MMP-14): modest increase
MMPs activity in primary orthotopic tumors [16]: decreased MMPs activity
MMP-9 protein level (MMP-9 [17]): modestly increased
total MMP activity in treated cells [18]: inhibited MMP activity
MMP-9 mRNA level (MMP-9 [19]): modestly increased
MMP-12 mRNA (MMP-12 [20]): modest increase

Compound: CNC(=O)[C@@H](NC(=O)[C@H](CC(C)C)[C@H](O)C(=O)NO)C(C)(C)C [marimastat]
clinical toxicity ([3]; higher dosage, patients with breast cancer metastasis): high musculoskeletal toxicities
